{
  "source": "patent US8318950B2",
  "about": "“N-acyl amino acid derivatives, a method for the preparation thereof, a pharmaceutical composition and use thereof as anti-allergic, anti-inflammatory and hypolipidemic agents” (Otkrytoe Aktsionernoe Obschestvo-Otechestvennye Lekarstva, priority 2005, dated 2012)",
  "key": {"[1]": {"test_system": "allergic pneumonitis in guinea pigs", "experiment": "Model of allergic pneumonitis in guinea pigs (broncho-alveolar wash-off cytology)", "format": "in vivo, guinea pig", "conditions": "0.1% solution, inhalations daily for 6 days", "procedure": "The model of allergic pneumonitis in guinea pigs was used.\nImmunization of the animals was similar to that described in Example 7.\n24 hours post the last ovalbumin administration broncho-alveolar wash-off was collected (through a cannula inserted into the trachea), and changes in bronchial mucosa was assessed using a complex of histological and cytological methods.\nThe compounds tested (0.1% solution) were daily administered in the form of inhalations using a nebulizing device for 6 days; at day 6 of administration, antigen (OA) challenge was performed.\nBroncho-alveolar wash-off was obtained in rats and guinea pigs under hexenal anesthesia by double washing the lungs through the trachea with 10 ml normal saline. Viability of cells was determined in the test with tryptane blue. Absolute number of cells in 1 ml (cytosis) was determined in the broncho-alveolar wash-off liquid (BAW) using the Goryaev's chamber. In the smears of the BAW liquid precipitate obtained using centrifugation at 200 g for 10 minutes and then stained according to Romanovskcy-Gimza, endopulmonary cytogram was calculated (in percent) [Avtsyn A. P., Lukomskij G. I., Romanova L. K. et al. Endopul'monal'naya cytogramma.//Sov. Med. 1982. No 7. pp. 8-14]."}, "[2]": {"test_system": "hypercholesterolemia in Wistar rats", "experiment": "Model of hypercholesterolemia in rats (oral cholesterol loading)", "format": "in vivo, rat", "procedure": "The study was carried out on male Wistar rats weighing 200±20 g. Hyperlipidemia was induced by oral administration of cholesterol loading, oily cholesterol suspension:\nolive oil (Acorsa, Spain)—5 ml/kg weigh of animals;\ncholesterol (Sigma, USA)—1 g/kg weight;\nsodium cholate (Sigma, USA)—100 mg/kg weight.\nAs a reference preparation, the preparation from the group of statines “Mevacor” (Lovastatine) manufactured by the firm Merck Sharp & Dohn was used at dose 40 mg/kg. Cholesterol suspension was administered daily in the morning for 10 days. The compounds tested (at dose 500 μg/kg) and the reference preparation (at dose 40 mg/kg) were administered to the animals togester with cholesterol suspension for 10 days. All the animals received a standard briquetted forage.\nThe animals were divided into the following groups:\n“Control”—intact animals (n=5);\n“Cholesterol”—rats that orally received cholesterol loading (n=10);\n“Lovastatine”—rats that orally received cholesterol loading and Lovastatine (n=10);\n“Compound IV”—rats that orally received cholesterol loading and the tested compound IV (n=10).\nBlood was sampled at days 5, 8 and 10 of the experiment.\nStatistical processing of the hypolipidemic action data of the tested substances was carried out with regard to the “Cholesterol” group (Table 13).\nExperimental groups included:\n1) “Cholesterol”—rats orally administered with oily cholesterol suspension for 10 days;\n2) “Compound IV”—rats orally administered with oily cholesterol suspension and the tested compound N;\n3) “Compound IV—1Na”—rats orally administered with oily cholesterol suspension and the tested mono-sodium salt of compound N;\n4) “Compound IV—2Na”—rats orally administered with oily cholesterol suspension and the tested di-sodium salt of compound N;\n5) “Compound V—1Na”—rats orally administered with oily cholesterol suspension and the tested mono-sodium salt of the compound V;\n6) “Compound III—1Na”—rats orally administered with oily cholesterol suspension and the tested mono-sodium salt of the compound III;\n7) “Compound II—1Na”—rats orally administered with oily cholesterol suspension and the tested mono-sodium salt of the compound II;\n8) “Sim”—rats orally administered with oily cholesterol suspension and Simvastatine;\n9) control—intact rats before beginning the test.\nAt day 10 of the test blood samples were taken following decapitation of the animals. The animals fasted for 12 hours prior to decapitation.\nBlood serum total cholesterol, triglycerides and high density lipoprotein cholesterol (HDLC) were measured. Low and very low density lipoprotein cholesterol was calculated by the difference between total cholesterol and HDL cholesterol.\nBlood serum total cholesterol and triglycerides were determined using the enzymatic methods.\nCholesterol level in high density lipoproteins (α-LP) was determined using the precipitation method of LDL and VLDL with phosphotungstic acid and magnesium ions.\nData in the tables are presented as a mean value±standard error. Significance of differences between the groups “cholesterol” and “preparation.” was assessed by the two-sampled Student's t-test."}, "[3]": {"test_system": "allergic rhinitis in guinea pigs", "experiment": "Model of allergic rhinitis in guinea pigs (nasal wash-off cytology)", "format": "in vivo, guinea pig", "conditions": "0.1% solution, inhalations daily for 6 days", "procedure": "The model of allergic rhinitis in guinea pigs was used.\nGuinea pigs were immunized according to the certain scheme for 1.5-2 months (Hutson P. A., Church M. K. et al. 1988): the animals were first immunized by intraperitoneal administration of ovalbumin at dose 10 mg/kg at 7-day interval (twice), then ovalbumin solution was inhaled to the guinea pigs using the Pari nebulizer at increasing concentration beginning from 0.1% and reaching 1% at 4-day intervals between inhalations. The last ovalbumin dose was administered into the nasal passages using a micropipette. 24 hours post the last ovalbumin administration nasal washing was collected (through a system of special tubes) and changes in nasal mucosa was assessed using a complex of histological and cytological methods. The compounds tested (0.1% solution) were daily administered in the form of inhalations using nebulizing device for 6 days; at day 6 of administration, antigen (OA) challenge was performed. Nasal wash-off was obtained 24 hours post challenge."}, "[4]": {"conditions": "day 5 of the experiment (Table 15)"}, "[5]": {"conditions": "day 8 of the experiment (Table 16)"}, "[6]": {"conditions": "day 10 of the experiment (Table 17)"}, "[7]": {"conditions": "dose 500 μg/kg, vs Cholesterol group"}, "[8]": {"conditions": "oral 10 days with cholesterol loading, tested compound 500 μg/kg, reference 40 mg/kg (Table 13)"}},
  "data": [
    {"smiles": "O=C(O)CCCC(=O)N[C@@H](Cc1c[nH]cn1)C(=O)O", "note": "[Compound IV, N^α-glutaryl-L-histidine]", "values": [
      {"measurement": "Absolute number of Macrophags in broncho-alveolar wash-off", "setting": "[1]", "value": "640.1 ± 57.98", "unit": "in 1 μl"},
      {"measurement": "Cytosis (absolute number of cells in 1 μl) in broncho-alveolar wash-off", "setting": "[1]", "value": "1331.3 ± 277.4", "unit": "cells in 1 μl"},
      {"measurement": "Total cholesterol, HDL", "setting": "[2]; [4]", "value": "35.8 ± 1.2", "unit": "mg/100 ml"},
      {"measurement": "Total cholesterol, LDL + VLDL", "setting": "[2]; [4]", "value": "48.5 ± 4.5", "unit": "mg/100 ml"},
      {"measurement": "Triglycerides, Serum", "setting": "[2]; [4]", "value": "120.6 ± 8.9", "unit": "mg/100 ml"},
      {"measurement": "Total cholesterol, Serum", "setting": "[2]; day 5 of the experiment (Table 15), oral with oily cholesterol suspension", "value": "84.2 ± 3.9", "unit": "mg/100 ml"},
      {"measurement": "Total cholesterol, HDL", "setting": "[2]; [5]", "value": "35.9 ± 1.2", "unit": "mg/100 ml"},
      {"measurement": "Total cholesterol, LDL + VLDL", "setting": "[2]; [5]", "value": "67.3 ± 8.7", "unit": "mg/100 ml"},
      {"measurement": "Total cholesterol, Serum", "setting": "[2]; [5]", "value": "103.3 ± 8.1", "unit": "mg/100 ml"},
      {"measurement": "Triglycerides, Serum", "setting": "[2]; [5]", "value": "154.2 ± 11.4", "unit": "mg/100 ml"},
      {"measurement": "Total cholesterol, HDL", "setting": "[2]; [6]", "value": "36.5 ± 0.9", "unit": "mg/100 ml"},
      {"measurement": "Total cholesterol, LDL + VLDL", "setting": "[2]; [6]", "value": "58.7 ± 5.3", "unit": "mg/100 ml"},
      {"measurement": "Total cholesterol, Serum", "setting": "[2]; [6]", "value": "95.2 ± 5.4", "unit": "mg/100 ml"},
      {"measurement": "Triglycerides, Serum", "setting": "[2]; [6]", "value": "143.3 ± 8.9", "unit": "mg/100 ml"},
      {"measurement": "lowering LDL cholesterol", "setting": "[2]; [7]", "value": 29.8, "unit": "%"},
      {"measurement": "lowering hepatic cholesterol", "setting": "[2]; [7]", "value": 22.7, "unit": "%"},
      {"measurement": "lowering hepatic triglycerides", "setting": "[2]; [7]", "value": 19, "unit": "%"},
      {"measurement": "lowering serum total cholesterol", "setting": "[2]; [7]", "value": 19.5, "unit": "%"},
      {"measurement": "Total cholesterol, CHDL", "setting": "[2]; [8]", "value": "50.5 ± 1.3", "unit": "mg/100 ml"},
      {"measurement": "Total cholesterol, CLLD + CLVLD", "setting": "[2]; [8]", "value": "46.1 ± 0.9", "unit": "mg/100 ml"},
      {"measurement": "Total cholesterol, Liver", "setting": "[2]; [8]", "value": "2.78 ± 0.28 mg/g of tissue"},
      {"measurement": "Total cholesterol, Serum", "setting": "[2]; [8]", "value": "96.6 ± 5.7", "unit": "mg/100 ml"},
      {"measurement": "Triglycerids, Liver", "setting": "[2]; [8]", "value": "5.53 ± 0.19 mg/g of tissue"},
      {"measurement": "Triglycerids, Serum", "setting": "[2]; [8]", "value": "95.1 ± 7.9", "unit": "mg/100 ml"},
      {"measurement": "Absolute number of Macrophags in nasal wash-off", "setting": "[3]", "value": "6.1 ± 0.75", "unit": "in 1 μl"},
      {"measurement": "Absolute number of Neutrophils in nasal wash-off", "setting": "[3]", "value": "3.1 ± 1.02", "unit": "in 1 μl"},
      {"measurement": "Citogram of nasal wash-off: Lymphocytes", "setting": "[3]", "value": "5.7 ± 1.54", "unit": "%"},
      {"measurement": "Cytosis (absolute number of cells in 1 μl) in nasal wash-off", "setting": "[3]; wash-off 24 hours post challenge", "value": "43.7 ± 6.65", "unit": "°* cells in 1 μl"}
    ]}
  ]
}
